Values quoted from earlier work as cited in patent US20240398817A1, “CARDIO- AND RENOSAFE ANTIDIABETIC THERAPY” (priority 2018, published 2024).
Like-named read-outs stand apart in the source and are kept apart here.

Experiments:
Settings in all cases: in vivo; cited from earlier work
[1] = tested on: people with type 2 diabetes
[2] = tested on: people with type 2 diabetes; remark: listed apart in the source
[3] = tested on: people with type 2 diabetes; remark: listed apart in the source

Structure (SMILES): Cn1c(=O)cc(N2CCC[C@@H](N)C2)n(Cc2ccccc2C#N)c1=O [alogliptin]
- Incidence of hospitalization for heart failure versus placebo, in words [1]: numerically increased
- Major adverse CV events compared with placebo, in words [1]: neutral effects

Structure (SMILES): N#C[C@@H]1C[C@@H]2C[C@@H]2N1C(=O)[C@@H](N)C12CC3CC(CC(O)(C3)C1)C2 [saxagliptin]
- Major adverse CV events compared with placebo, in words [2]: neutral effects

Structure (SMILES): N[C@@H](CC(=O)N1CCn2c(nnc2C(F)(F)F)C1)Cc1cc(F)c(F)cc1F [sitagliptin]
- Incidence of heart failure hospitalization versus placebo, in words [3]: no effect
- Major adverse CV events compared with placebo, in words [3]: neutral effects
